# Reference: patent publication US20240400986A1, “MEMBRANE BOUND COMPOSITIONS AND METHODS RELATING TO SAME” (FLAGSHIP PIONEERING INNOVATIONS VII, LLC, priority 2021, published 2024)
# Like-named read-outs stand apart in the source and are kept apart here.
# Legend:
# [1] = system: neuronal cell line derived from human neuroblastoma; test: Small molecule compound screen of gigasome production in neuronal monocultures; details: Homo sapiens, 24 h, read-out: Fold Change of Gigasomes Produced vs. DMSO
# From the text: (§1) To quantify and characterize gigasome production using microscopy, while tracking cell viability/phenotype, a multi-readout system was developed that allowed simultaneous analysis of gigasomes harvested from cell culture media supernatants and respective gigasome producing cell viability. […] For the screening, a total of 99 compounds (TargetMol) were divided in 5 groups. Each group included an untreated condition, a vehicular DMSO control, and a known high-gigasome producing condition to comparatively study gigasome production rates. As a cell death control group, 500 nM Staurosporine was added to induce apoptosis. Cultures were incubated for 24 hours under gigasome inducing conditions at concentrations ranging between 10 nM and 10,000 nM. Before the end of the treatment, live neuronal cultures were imaged. The Zeiss ZEN Blue software was used to distribute imaging fields of view (positions) to create an unbiased imaging sample of a well. 5 images were taken using a Zeiss LSM 900 confocal microscope. […] The BioApps ZEN software package was used to perform cell nucleus segmentation and counting. After 24 hours, gigasomes were harvested from the cell culture media by gently removing from the top of each 96-well ⅔ of the total volume without disturbing the cell layer (containing the settled gigasomes) and by adding to each well the same amount of PBS. The wells were washed twice gently, and the gigasome-containing media/PBS wash was transferred into the well of a 384-well glass bottom plate. Cells remaining in the 96-well plates were assessed for viability using CellTiter-Glo (Promega).
# (§2) For gigasome analysis in 384-well plates, the Zeiss ZEN Blue software was used to distribute positions to create an unbiased imaging sample of a well. 6 images per well were taken using a Zeiss LSM 900 confocal microscope.
# (§3) A watershed binary segmentation step was performed to separate grouped objects. For each particle in the mask, characteristic parameters of the particle were calculated and saved.
# (§4) Particles of interest were identified by thresholding by area and circularity. […] Circularity, defined by the formula 4pi(area/perimeter^2, was set to be between 0.8 and 1, where a value of 1.0 is a perfect circle, and a value of 0 is a line. Gigasomes were identified from the particles of interest by thresholding by mean nuclear signal. The nuclear signal threshold was set using a value equal to one fourth of a threshold value calculated by the Li auto-threshold algorithm applied to the distribution of all particles of interest. Particles of interest with nuclear signal below this value were considered “negative” for nuclear material and were identified as gigasomes. A sampling factor was calculated to extrapolate the total quantity of a type of object (particles, particles of interest, gigasomes) in the well. The sampling factor was the percentage of the well's area that was imaged. […] The normalized quantity or distribution of objects was described as a quantity or distribution of objects per 1000 cells.
# [2] = system: neuronal cell line derived from human neuroblastoma; details: neuronal cells, 24 hours
# From the text: as §1, §2, §3, §4
# [3] = system: neuronal cell line derived from human neuroblastoma; details: human, 24 h
# neuronal cells [4] = test: Gigasome-mediated extraction of stress granule-associated protein HuR (fixed plates, confocal); assay type: cell-based, human; details: 5 μM sodium arsenite, 0.2 μM MG-132, alone or combined, 24 h
# Experimental: For this paradigm, cells were treated with a low sodium arsenite concentration of 5 μM either alone or in combination with the proteasome inhibitor MG-132 at 0.2 μM. A vehicular control amount of DMSO was added to the media to comparatively study cargo signals within cells and gigasomes. Treatments were carried out in reduced serum-containing media for 24 hours to mimic a chronic exposure to arsenite. The presence of the stress-granule-related cargo within cells and in gigasomes was characterized and quantified by confocal microscopy analysis of 4% paraformaldehyde. Non-specific labeling was blocked by incubation with 5% normal goat serum in PBS in the presence of 0.1% Triton X-100, for 2 h at room temperature, followed by immunolabeling with an antibody against the RNA-binding protein HuR (see Table 12) and incubation with Alexa Fluor® 568 secondary antibodies. Phalloidin Alexa Fluor® 488 was used to mark the proximal plasma membrane. Nuclei were counterstained with DAPI.
# Images were captured using a Zeiss LSM 900 confocal microscope and a 40× objective. For analysis, 10×16-bit images per well were processed to obtain a final total range of 75-200 cells. Composite images were separated in the different channels. The background was subtracted from the red cargo-related channel, as described in Example 13a. The nuclear signal in the blue channel was thresholded using the “Yen” autothreshold algorithm. To measure the nuclear-to-cytosolic translocation of the stress-granule-related protein cargo upon treatment, firstly, the cargo-related nuclear signal was subtracted from the respective red channel image by creating a nuclear selection from the thresholded blue channel image, which was added to ImageJ Manager. The nuclear selection was then transferred to the background-subtracted red channel and the nuclear cargo signal was removed from the image leaving only the cytosolic signal. The cleared red channel image was thresholded using the “default” autothreshold algorithm for downstream particle analysis. To measure the cytosolic cargo signal, a cellular mask was then generated by thresholding the Green/F-actin channel using the “Li” autothreshold method. A cytosolic selection was created, added to ImageJ Manager, and transferred to the background subtracted, nuclear-cleared red channel image. The cytosolic cargo signal (integrated density) was measured and normalized to the number of nuclei counted in each field. Particle analysis was performed as described in Example 13a, using the thresholded green channel to identify particles of interest by filtering by area and circularity and re-directing to the blue and red channel for absence of nuclear signal and eventual presence of disease-related cargo, respectively. The quantity or distribution of objects obtained from the particle analysis was obtained as described in Example 13a.
# neuronal cells [5] = test: Gigasome-mediated extraction of APP-CTFs upon γ-secretase and proteasome inhibition (fixed plates, confocal); assay type: cell-based, human; details: γ-secretase inhibitor 5 μM, MG-132 0.1 μM, alone or combined; 24 h; compared to DMSO
# Experimental: Cells were treated with the γ-secretase inhibitor L-685,458 at 5 μM, either alone or in combination with the proteasome inhibitor MG-132 at 0.1 μM. A vehicular control amount of DMSO was added to the media to comparatively study cargo signals within cells and gigasomes. Treatments were carried out in reduced serum-containing media (3% FBS) for 24 hours. Disease-related cargo presence within cells and in gigasomes was characterized and quantified by confocal microscopy analysis of 4% paraformaldehyde fixed cells, following (immuno)fluorescent labeling of cytosolic, nuclear and cargo-specific protein markers. In some experiments β-III tubulin and Alexa Fluor® 488 phalloidin were used to mark the cytosol and proximal plasma membrane, respectively. To detect APP-CTFs, an antibody against the C-terminus of APP (C-APP) was used (see Table 12). Non-specific labeling was blocked by incubation with 5% normal goat serum in PBS in the presence of 0.05% saponin, for 1 h at room temperature. Primary antibodies were incubated overnight at 4° C., followed by incubation with Alexa Fluor®-conjugated secondary antibodies for 1 hour at room temperature. Nuclei were counterstained with DAPI.
# A range of 5-8 images per well were taken from replicate experiments to capture a final total range of 150-200 cells. […] The cellular cargo fluorescence intensity in the red channel was quantified by subtracting the background signal from each image, using the ImageJ built-in “subtract background” function with a default rolling ball radius of 50 pixel. The cargo signal (integrated density) in the red channel was measured and normalized to the number of nuclei counted in each field. […]
# For particle analysis, the cytosolic and F-actin/membrane signals were merged into single RGB image, converted to grayscale and then thresholded to create a cellular mask of objects in the field of view, as calculated by the “Li” autothreshold algorithm. […] The quantity or distribution of objects obtained from the particle analysis was divided by the number of cells counted in each field to obtain a normalized quantity or distribution.
compound,measurement,setting,value
Cn1cncc1[C@@](N)(c1ccc(Cl)cc1)c1ccc2c(c1)c(-c1cccc(Cl)c1)cc(=O)n2C [Tipifarnib],fold induction at 0.01 µM,[1],0.75 to 1
same,fold induction at 0.1 µM,[1],1.5 to 1.75
same,fold induction at 1 µM,[1],1.75 to 2
same,Number of Gigasomes Produced,[2]; dose 10 nM,<35
same,Number of Gigasomes Produced,[2]; dose 100 nM,55-65
same,Number of Gigasomes Produced,[2]; dose 1000 nM,65-75
same,Viability,[3]; 10 nM,>75%
same,Viability,[3]; 100 nM,>75%
same,Viability,[3]; 1000 nM,50-75%
O=[As]O [sodium arsenite],HuR cytosolic signal,neuronal cells [4]; compared to DMSO (FIG. 7B),increased
same,gigasomes per 1000 cells,neuronal cells [4]; fixed plates (FIG. 7C),200 per 1000 cells
"CC(C)C[C@H](NC(=O)[C@H](Cc1ccccc1)C[C@@H](O)[C@H](Cc1ccccc1)NC(=O)OC(C)(C)C)C(=O)N[C@@H](Cc1ccccc1)C(N)=O [γ-secretase inhibitor, L-685,458]",intracellular APP-CTF levels (C-APP immunoreactivity),neuronal cells [5],increase
